Reference: ChEMBL document CHEMBL5291721, “A preclinical secondary pharmacology resource illuminates target-adverse drug reaction associations of marketed drugs” (Nat Commun, 2023)

Assays:
[1] = target: cGMP-inhibited 3',5'-cyclic phosphodiesterase 3A (Homo sapiens, UniProt Q14432); format: functional
Thromboxane A2 receptor [2] = target: T1, Thromboxane A2 receptor (Homo sapiens, UniProt P21731); format: functional, cell-based
T1 sequence (P21731 whole entry): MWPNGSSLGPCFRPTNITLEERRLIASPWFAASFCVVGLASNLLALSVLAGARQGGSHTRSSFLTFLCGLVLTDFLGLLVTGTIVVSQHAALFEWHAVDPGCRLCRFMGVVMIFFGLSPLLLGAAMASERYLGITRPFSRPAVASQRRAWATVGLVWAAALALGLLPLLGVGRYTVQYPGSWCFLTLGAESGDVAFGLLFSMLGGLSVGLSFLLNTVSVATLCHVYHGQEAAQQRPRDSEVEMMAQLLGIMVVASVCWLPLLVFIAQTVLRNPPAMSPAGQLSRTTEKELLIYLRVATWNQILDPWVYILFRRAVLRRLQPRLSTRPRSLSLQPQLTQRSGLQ

Histamine H3 receptor = Histamine H3 receptor (Homo sapiens, UniProt Q9Y5N1)
Histamine H3 receptor, sequence (Q9Y5N1 whole entry): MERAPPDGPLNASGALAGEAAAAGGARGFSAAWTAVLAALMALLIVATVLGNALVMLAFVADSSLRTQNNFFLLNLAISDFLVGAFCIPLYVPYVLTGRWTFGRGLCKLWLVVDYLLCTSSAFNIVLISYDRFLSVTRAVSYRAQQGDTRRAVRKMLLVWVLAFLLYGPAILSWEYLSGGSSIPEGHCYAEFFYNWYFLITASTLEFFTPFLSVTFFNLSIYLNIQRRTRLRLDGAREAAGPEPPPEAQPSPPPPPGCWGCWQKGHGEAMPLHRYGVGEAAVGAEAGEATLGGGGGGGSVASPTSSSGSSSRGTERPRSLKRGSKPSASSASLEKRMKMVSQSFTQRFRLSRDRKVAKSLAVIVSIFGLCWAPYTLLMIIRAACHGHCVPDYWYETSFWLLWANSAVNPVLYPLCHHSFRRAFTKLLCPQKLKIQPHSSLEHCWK

Thromboxane A2 receptor [3] = target: T1, Thromboxane A2 receptor; format: functional, cell-based; remark: listed apart in the source
[4] = target: T2, Alpha-2A adrenergic receptor (Homo sapiens, UniProt P08913)
T2 sequence (P08913 whole entry): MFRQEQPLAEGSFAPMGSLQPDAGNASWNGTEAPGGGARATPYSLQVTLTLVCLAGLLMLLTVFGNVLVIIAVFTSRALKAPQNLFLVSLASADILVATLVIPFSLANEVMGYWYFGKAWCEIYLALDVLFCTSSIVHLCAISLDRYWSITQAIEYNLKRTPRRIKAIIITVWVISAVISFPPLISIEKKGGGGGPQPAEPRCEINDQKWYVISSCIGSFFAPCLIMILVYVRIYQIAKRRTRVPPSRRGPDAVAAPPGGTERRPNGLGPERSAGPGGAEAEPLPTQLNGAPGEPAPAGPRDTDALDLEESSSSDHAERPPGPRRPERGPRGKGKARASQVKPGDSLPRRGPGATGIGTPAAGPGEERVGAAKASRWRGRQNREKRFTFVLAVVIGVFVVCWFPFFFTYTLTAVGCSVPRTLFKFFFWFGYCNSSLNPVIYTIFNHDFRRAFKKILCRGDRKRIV

[5] = target: T3, 5-hydroxytryptamine receptor 1A (Homo sapiens, UniProt P08908)
T3 sequence (P08908 whole entry): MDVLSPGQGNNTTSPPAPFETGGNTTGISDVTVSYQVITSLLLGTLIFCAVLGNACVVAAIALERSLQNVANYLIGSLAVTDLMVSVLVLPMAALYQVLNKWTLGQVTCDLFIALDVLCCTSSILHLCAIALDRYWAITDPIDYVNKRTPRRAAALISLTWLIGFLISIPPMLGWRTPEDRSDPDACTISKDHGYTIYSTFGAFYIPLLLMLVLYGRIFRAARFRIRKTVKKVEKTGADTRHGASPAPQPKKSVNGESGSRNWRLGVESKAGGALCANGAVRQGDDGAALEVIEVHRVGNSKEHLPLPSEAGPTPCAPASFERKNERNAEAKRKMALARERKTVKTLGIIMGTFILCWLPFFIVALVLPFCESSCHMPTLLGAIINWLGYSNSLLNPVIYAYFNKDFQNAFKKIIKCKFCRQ

[6] = target: 5-hydroxytryptamine receptor 2B (Homo sapiens, UniProt P41595); format: functional, cell-based
5-hydroxytryptamine receptor 2B, sequence (P41595 whole entry): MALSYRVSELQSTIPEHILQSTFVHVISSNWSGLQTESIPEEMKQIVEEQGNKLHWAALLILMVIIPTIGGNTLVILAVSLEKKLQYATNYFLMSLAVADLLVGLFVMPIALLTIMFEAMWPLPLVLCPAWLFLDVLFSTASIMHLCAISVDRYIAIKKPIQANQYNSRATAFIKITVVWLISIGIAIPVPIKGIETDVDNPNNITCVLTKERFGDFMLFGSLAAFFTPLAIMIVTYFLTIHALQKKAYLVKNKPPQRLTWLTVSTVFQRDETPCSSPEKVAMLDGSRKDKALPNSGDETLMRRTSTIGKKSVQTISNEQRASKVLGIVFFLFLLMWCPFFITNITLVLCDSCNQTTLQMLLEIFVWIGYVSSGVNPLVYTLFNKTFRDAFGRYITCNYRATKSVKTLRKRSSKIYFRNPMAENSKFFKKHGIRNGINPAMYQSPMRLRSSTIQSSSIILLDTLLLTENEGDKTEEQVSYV

Prothrombin = Prothrombin (Homo sapiens, UniProt P00734); format: functional
[7] = target: T4, Amine oxidase [flavin-containing] A (Homo sapiens, UniProt P21397); format: functional
T4 sequence (P21397 whole entry): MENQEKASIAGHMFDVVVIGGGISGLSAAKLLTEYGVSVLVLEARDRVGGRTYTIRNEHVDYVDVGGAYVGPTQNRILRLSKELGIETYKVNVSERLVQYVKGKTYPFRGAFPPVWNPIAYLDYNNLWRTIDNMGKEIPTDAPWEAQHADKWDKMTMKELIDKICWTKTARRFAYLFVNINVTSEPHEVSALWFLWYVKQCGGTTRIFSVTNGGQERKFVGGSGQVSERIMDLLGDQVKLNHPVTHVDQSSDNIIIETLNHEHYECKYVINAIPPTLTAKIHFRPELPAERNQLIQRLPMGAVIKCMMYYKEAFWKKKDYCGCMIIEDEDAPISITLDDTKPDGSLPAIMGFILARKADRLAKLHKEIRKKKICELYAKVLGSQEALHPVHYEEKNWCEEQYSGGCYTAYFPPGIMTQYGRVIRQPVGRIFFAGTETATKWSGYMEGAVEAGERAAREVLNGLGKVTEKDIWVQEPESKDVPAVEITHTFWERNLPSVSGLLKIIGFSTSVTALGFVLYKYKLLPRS

[8] = target: Voltage-gated inwardly rectifying potassium channel KCNH2 (Homo sapiens, UniProt Q12809); format: functional
[9] = target: T5, Muscarinic acetylcholine receptor M2 (Homo sapiens, UniProt P08172)
T5 sequence (P08172 whole entry): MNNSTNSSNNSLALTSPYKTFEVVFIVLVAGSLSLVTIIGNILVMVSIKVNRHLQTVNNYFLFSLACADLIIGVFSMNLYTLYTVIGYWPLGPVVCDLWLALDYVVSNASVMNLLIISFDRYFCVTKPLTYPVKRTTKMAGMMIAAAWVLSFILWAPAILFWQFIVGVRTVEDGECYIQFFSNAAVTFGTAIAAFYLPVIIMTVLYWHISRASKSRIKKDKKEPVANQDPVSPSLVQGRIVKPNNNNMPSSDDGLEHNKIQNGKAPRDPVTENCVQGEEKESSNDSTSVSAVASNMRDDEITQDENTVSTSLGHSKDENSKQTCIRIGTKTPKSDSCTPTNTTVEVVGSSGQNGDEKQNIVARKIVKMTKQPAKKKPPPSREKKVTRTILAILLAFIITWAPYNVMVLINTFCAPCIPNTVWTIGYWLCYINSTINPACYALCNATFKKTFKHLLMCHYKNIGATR

[10] = target: 3',5'-cyclic-AMP phosphodiesterase 4A (Homo sapiens, UniProt P27815); format: functional
3',5'-cyclic-AMP phosphodiesterase 4A, sequence (P27815 whole entry): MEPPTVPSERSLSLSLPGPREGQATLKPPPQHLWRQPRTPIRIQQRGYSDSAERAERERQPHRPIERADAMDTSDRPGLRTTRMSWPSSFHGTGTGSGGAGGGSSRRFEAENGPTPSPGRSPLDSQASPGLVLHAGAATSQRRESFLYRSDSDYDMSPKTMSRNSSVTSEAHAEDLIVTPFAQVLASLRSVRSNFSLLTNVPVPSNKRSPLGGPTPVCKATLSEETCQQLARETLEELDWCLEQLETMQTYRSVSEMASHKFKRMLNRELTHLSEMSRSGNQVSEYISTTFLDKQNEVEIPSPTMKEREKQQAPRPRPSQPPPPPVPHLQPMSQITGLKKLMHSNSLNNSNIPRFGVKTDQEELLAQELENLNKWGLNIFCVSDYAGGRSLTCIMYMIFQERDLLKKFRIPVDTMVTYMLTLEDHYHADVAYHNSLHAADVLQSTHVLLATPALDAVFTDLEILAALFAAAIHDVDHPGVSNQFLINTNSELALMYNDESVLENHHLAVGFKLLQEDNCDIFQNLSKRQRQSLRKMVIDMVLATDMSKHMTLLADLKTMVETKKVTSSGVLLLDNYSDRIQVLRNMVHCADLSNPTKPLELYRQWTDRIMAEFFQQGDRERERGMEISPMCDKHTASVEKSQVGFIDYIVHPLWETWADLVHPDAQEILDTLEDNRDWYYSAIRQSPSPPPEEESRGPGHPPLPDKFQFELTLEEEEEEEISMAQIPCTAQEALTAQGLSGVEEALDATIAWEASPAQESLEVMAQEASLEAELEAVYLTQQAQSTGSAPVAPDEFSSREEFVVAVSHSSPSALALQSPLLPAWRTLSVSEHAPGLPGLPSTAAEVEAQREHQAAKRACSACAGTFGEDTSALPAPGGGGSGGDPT

[11] = target: Sodium-dependent dopamine transporter (Homo sapiens, UniProt Q01959)
Sodium-dependent dopamine transporter, sequence (Q01959 whole entry): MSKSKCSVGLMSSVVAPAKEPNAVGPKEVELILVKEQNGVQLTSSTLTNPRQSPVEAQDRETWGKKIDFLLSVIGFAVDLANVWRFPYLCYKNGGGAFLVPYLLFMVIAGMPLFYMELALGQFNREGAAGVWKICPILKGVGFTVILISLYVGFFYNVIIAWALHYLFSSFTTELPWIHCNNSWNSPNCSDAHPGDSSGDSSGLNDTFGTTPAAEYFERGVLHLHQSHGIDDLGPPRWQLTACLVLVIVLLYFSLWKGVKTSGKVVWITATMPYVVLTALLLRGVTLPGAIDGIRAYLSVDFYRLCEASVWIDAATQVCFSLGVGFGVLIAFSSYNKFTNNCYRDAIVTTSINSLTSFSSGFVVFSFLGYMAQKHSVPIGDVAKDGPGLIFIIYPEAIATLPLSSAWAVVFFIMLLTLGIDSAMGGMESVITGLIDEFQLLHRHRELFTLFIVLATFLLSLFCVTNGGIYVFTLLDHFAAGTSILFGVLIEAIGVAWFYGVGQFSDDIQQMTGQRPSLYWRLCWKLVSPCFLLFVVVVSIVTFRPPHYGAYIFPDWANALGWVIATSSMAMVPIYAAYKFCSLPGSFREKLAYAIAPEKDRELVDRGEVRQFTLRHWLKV

Acetylcholinesterase = Acetylcholinesterase (Homo sapiens, UniProt P22303); format: functional
Acetylcholinesterase, sequence (P22303 whole entry): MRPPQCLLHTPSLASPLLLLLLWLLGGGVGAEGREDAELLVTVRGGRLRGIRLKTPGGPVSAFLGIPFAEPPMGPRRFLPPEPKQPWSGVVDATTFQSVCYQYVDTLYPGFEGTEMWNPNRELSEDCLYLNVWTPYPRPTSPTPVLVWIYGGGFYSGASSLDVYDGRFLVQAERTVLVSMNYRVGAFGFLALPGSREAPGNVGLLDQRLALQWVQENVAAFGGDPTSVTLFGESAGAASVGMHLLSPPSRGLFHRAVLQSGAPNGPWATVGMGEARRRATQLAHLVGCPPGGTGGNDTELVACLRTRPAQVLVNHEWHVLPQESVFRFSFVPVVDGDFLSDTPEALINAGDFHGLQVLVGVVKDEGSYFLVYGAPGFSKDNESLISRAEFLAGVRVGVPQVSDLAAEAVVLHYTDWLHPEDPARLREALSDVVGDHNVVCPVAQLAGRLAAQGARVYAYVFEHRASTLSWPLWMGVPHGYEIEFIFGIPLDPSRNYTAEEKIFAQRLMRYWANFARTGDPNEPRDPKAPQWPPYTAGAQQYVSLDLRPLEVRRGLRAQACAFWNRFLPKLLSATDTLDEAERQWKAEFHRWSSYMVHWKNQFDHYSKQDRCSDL
Also: assay procedure not described here.

cGMP-inhibited 3',5'-cyclic phosphodiesterase 3A, sequence (Q14432 whole entry): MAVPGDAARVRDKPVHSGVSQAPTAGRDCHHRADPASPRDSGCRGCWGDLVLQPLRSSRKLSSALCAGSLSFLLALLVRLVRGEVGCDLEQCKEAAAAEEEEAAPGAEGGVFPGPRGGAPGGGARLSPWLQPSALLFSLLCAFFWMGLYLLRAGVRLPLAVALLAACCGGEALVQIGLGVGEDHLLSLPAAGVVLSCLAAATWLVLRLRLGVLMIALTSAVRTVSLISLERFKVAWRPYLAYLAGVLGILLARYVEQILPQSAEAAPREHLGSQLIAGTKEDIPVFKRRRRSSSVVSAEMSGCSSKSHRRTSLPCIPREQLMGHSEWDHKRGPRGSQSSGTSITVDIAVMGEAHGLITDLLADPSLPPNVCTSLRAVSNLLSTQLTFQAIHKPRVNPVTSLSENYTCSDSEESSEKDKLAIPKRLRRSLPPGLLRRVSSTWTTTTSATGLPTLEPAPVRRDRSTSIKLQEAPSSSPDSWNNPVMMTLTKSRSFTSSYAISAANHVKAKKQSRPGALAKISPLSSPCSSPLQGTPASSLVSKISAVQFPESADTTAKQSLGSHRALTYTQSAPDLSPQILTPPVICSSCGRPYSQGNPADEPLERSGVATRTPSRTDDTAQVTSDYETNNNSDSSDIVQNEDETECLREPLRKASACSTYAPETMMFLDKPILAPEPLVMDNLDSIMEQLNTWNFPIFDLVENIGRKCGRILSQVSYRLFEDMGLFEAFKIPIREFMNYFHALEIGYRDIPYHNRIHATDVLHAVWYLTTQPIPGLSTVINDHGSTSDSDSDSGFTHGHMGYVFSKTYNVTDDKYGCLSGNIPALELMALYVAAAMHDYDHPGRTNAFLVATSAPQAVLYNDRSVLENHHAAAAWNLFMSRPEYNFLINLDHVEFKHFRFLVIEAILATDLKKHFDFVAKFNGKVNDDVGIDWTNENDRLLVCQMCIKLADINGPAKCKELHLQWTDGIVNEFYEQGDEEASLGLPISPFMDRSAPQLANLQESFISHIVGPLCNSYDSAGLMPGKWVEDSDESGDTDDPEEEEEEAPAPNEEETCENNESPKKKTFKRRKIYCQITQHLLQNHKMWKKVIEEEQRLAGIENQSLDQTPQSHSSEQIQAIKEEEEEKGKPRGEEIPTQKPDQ

SMILES | AC50 [1] [µM] | AC50 (Thromboxane A2 receptor [2]) [µM] | AC50 (Histamine H3 receptor) [µM] | AC50 (Thromboxane A2 receptor [3]) [µM] | AC50 [4] [µM] | AC50 [5] [µM] | AC50 [6] [µM] | AC50 (Prothrombin) [µM] | AC50 [7] [µM] | AC50 [8] [µM] | AC50 [9] [µM] | AC50 [10] [µM] | AC50 [11] [µM] | AC50 (Acetylcholinesterase) [µM]
O=C(O)[C@@H]1C[C@@H](O)CN1 | > 30 | > 30 | > 30 | > 30 | > 30 | > 30 | > 30 | > 30 | > 30 | > 30 | > 30 | > 30 | > 30 | > 30
O=C(/C=C/c1cccc(S(=O)(=O)Nc2ccccc2)c1)NO [BELINOSTAT] | > 30 | > 30 | > 30 | > 30 | > 30 | > 30 | > 30 | > 30 | > 30 |  | > 30 | 23.7 | > 30 | > 30
Cc1cn([C@H]2O[C@@H](CO)[C@H](O)[C@H]2F)c(=O)[nH]c1=O [CLEVUDINE] | > 30 | > 30 | > 30 | > 30 | > 30 | > 30 | > 30 | > 30 | > 30 |  | > 30 | > 30 | > 30 | > 30
CC(=O)[C@H]1CC[C@H]2[C@@H]3C=CC4=CC(=O)CC[C@@]4(C)[C@@H]3CC[C@]12C [DYDROGESTERONE] | > 30 | > 30 | > 30 | 25.1 | > 30 | > 30 | > 30 | > 30 | > 30 |  | > 30 | > 30 | > 30 | > 30
CC(O)(P(=O)(O)O)P(=O)(O)O [ETIDRONIC ACID] | > 30 | > 30 | > 30 | > 30 | > 30 | > 30 | > 30 | > 30 | > 30 |  | > 30 | > 30 | > 30 | > 30
O=C(CCC/C=C\C[C@@H]1[C@@H](CC[C@@H](O)CCc2ccccc2)[C@H](O)C[C@@H]1O)OCCCCO[N+](=O)[O-] [LATANOPROSTENE BUNOD] | > 30 | > 30 | > 30 | > 10 | > 30 | > 30 | > 30 | > 30 | > 30 |  | > 30 | > 30 | > 30 | > 30
CCC[C@H](N[C@@H](C)C(=O)N1[C@H](C(=O)O)C[C@@H]2CCCC[C@@H]21)C(=O)OCC [PERINDOPRIL] | > 30 | > 30 | > 30 | > 30 | > 30 | > 30 | > 30 | > 30 | > 30 |  | > 30 | > 30 | > 30 | > 30
COc1cc(C)c2c(Oc3cccc(C(F)(F)F)c3)c(OC)cc(NC(C)CCCN)c2n1 (stereo not drawn) [TAFENOQUINE] | > 30 | > 3 | > 30 | > 3 | > 30 | 11.3 | > 30 | > 30 | > 30 |  | > 30 | > 30 | 5.98 | > 30
COc1ccc2c(C(=S)N(C)CC(=O)O)cccc2c1C(F)(F)F [TOLRESTAT] | > 30 | > 30 | > 30 | > 30 | > 30 | > 30 | > 30 | > 30 | > 30 |  | > 30 | > 30 | > 30 | > 30
